{"source": "paper PMC5447021", "about": "“TNF Lectin-Like Domain Restores Epithelial Sodium Channel Function in Frameshift Mutants Associated with Pseudohypoaldosteronism Type 1B” (Frontiers in Immunology, 2017)", "key": {"[1]": {"test_system": "ENaC PHA1B point mutants", "conditions": "PHA1B point mutants with WT subunits; cited from earlier work", "description": "PHA1B is a very rare inherited disease caused by mutations in the genes encoding the α (SCNN1A), β (SCNN1B), or γ (SCNN1G), subunit of ENaC, resulting in defective transepithelial sodium transport ([28]). […] Loss-of-function mutations in ENaC genes translate into the salt-wasting genetic disease PHA1B ([33], [41]). […] Remarkably, amiloride-sensitive currents were restored ..."}, "[2]": {"test_system": "αI68fs", "assay": "Membrane abundance of αI68fs", "assay_type": "cell-based, human", "conditions": "200 nM, relative to WT control (=1)", "description": "Cell surface biotinylation was performed as previously described ([26]). In brief, A549 cells or transiently transfected HEK-293 cells were grown in 10 cm dishes in 37°C, 5% CO2 incubator in DMEM medium supplemented with 5% FBS. […] Medium was aspirated, and then cells were washed twice with 10 ml ice-cold phosphate-buffered saline (PBS), covered with 2.5 mg EZ-Link Sulfo-NHS-SS-Biotin (Thermo Scientific, Rockford, USA), dissolved in 10 ml ice-cold PBS, and incubated at 4°C with gentle agitation for 30 min. Fifty milliliters of quenching solution were added to cells; then cells were scraped in solution and transferred to fresh 50 ml tube. Cell suspension was centrifuged at 500 × g for 3 min. Supernatant was discarded, and 5 ml of Tris-buffered saline (TBS) was added to the cell pellet. The cell pellet was resuspended and centrifuged at 500 × g for 3 min. Supernatant was discarded and cell pellet was resuspended in lysis buffer containing protease inhibitor cocktail (10 µM pepstatin A, 10 µM phenylmethylsulfonyl fluoride, and 10 µM leupeptin) and transferred to fresh 1.5 ml centrifuge tube. Cell pellet was then homogenized on ice by ultrasonication using 1 s bursts and incubated on ice for at least 30 min. Intact cells and nuclei were pelleted by centrifugation at 10,000 × g for 2 min under cooling conditions. […] Exposed films were scanned and quantified using ImageJ (NIH, MD, USA). […]"}, "[3]": {"target": "T1, δ-hENaC (Homo sapiens, UniProt P51172)", "T1 construct": "expressed in transfected cells; host or cells: HEK-293", "T1 sequence (P51172 1-638 isoform P51172-1)": "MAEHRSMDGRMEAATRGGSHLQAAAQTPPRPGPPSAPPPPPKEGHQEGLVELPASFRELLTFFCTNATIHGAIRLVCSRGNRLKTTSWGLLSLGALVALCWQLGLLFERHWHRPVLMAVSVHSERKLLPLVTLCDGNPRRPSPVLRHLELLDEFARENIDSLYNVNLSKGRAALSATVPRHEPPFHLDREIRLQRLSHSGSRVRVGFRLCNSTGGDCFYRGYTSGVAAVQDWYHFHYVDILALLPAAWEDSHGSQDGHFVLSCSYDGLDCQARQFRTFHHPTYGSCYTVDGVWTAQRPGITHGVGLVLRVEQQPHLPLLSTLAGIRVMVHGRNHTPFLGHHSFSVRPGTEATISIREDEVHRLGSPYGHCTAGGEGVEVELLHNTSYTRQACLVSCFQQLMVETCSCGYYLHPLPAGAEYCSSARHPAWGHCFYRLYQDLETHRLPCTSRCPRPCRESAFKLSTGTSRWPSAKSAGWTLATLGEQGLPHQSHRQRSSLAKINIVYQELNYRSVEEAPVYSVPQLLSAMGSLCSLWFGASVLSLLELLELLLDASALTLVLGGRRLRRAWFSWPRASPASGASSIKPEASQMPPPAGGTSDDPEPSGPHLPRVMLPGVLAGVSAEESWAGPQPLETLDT", "set-up": "method as in PMID 24077967", "conditions": "δ-hENaC alone, control current 60.6 ± 2.5 pA, mean ± S.E.; cited from earlier work"}, "[4]": {"test_system": "α-ENaC (WT αβγ-ENaC)", "conditions": "HEK-293, 5 and 10 min; returns after 1 h; cited from earlier work"}}, "note": "Entries after “also recorded” stand apart in the source; their conditions may differ.", "data": [{"smiles": "C[C@@H]1NC(=O)CNC(=O)[C@H](CCC(=O)O)NC(=O)[C@@H]2CCCN2C(=O)[C@H]([C@@H](C)O)NC(=O)[C@H](CCC(=O)O)NC(=O)[C@H](CCCNC(=N)N)NC(=O)[C@H](CCC(N)=O)NC(=O)CNC(=O)[C@@H](N)CSSC[C@@H](C(=O)O)NC(=O)[C@H](Cc2ccc(O)cc2)NC(=O)[C@H](Cc2c[nH]c3ccccc23)NC(=O)[C@@H]2CCCN2C(=O)[C@H](CCCCN)NC(=O)[C@H](C)NC(=O)[C@H](CCC(=O)O)NC1=O", "note": "[solnatide, L-cysteine, L-cysteinylglycyl-L-glutaminyl-L-arginyl-L-α-glutamyl-L-threonyl-L-prolyl-L-α-glutamylglycyl-L-alanyl-L-α-glutamyl-L-alanyl-L-lysyl-L-prolyl-L-tryptophyl-L-tyrosyl-, cyclic (1→17)-disulfide]", "values": [{"measurement": "Restoration of amiloride-sensitive currents", "setting": "[1]", "result": "restored to WT control levels; also recorded: restoring current levels in these mutant ENaC-expressing cells to WT levels or even higher"}, {"measurement": "Membrane abundance, solnatide 5 min", "setting": "[2]; 5 min, own control 0.15 ± 0.06, p < 0.05 vs control", "result": "0.25 ± 0.07"}, {"measurement": "Membrane abundance, solnatide 10 min", "setting": "[2]; 10 min, own control 0.15 ± 0.06, p < 0.01 vs control", "result": "0.32 ± 0.11"}, {"measurement": "Maximal induced current, solnatide", "setting": "[3]", "result": "15.6 ± 7.9", "unit": "pA"}, {"measurement": "Membrane abundance, solnatide", "setting": "[4]", "result": "significant statistically"}]}]}
